Source: patent US9090628B2, “Benzoxazepin compounds selective for PI3K P110 delta and methods of use” (GENENTECH, INC., priority 2011, dated 2015)

How the values were obtained:
p110 delta = p110 delta (Homo sapiens (Human), UniProt O00329); test: PI3K isoform inhibition assay, p110 delta (fluorescence polarization displacement); type: biochemical
Experimental: (§1) PI3K enzymatic activity was assayed by measuring the amount of product phosphatidylinositol 3,4,5-phosphate (PIP3) formed from substrate 4,5 phosphatidylinositol 4,5-phosphate (PIP2) using a fluorescence polarization displacement assay. The decrease in fluorescence polarization of a fluorescent PIP3 probe is measured as it is displaced from a PIP3-binding protein GRP-1 detector by PI3K-catalyzed product. […] The kinase reactions were initiated by the addition of 40 ng/mL p110α/p85α, 300 ng/mL p110β/p85α, 40 ng/mL p110γ, or 40 ng/mL p110δ/p85α (Upstate Group, Millipore; Dundee, UK), and 10 μM PIP2 (Echelon Biosciences) to the wells. […] After 60 minutes of incubation at room temperature to allow equilibration of labeled and unlabeled PIP3 binding, the parallel and perpendicular components of the fluorescence emissions from each sample were measured at an excitation wavelength of 530 nm and an emission wavelength of 590 nm using an Envision fluorescent plate reader with a rhodamine filter (PerkinElmer Life and Analytical Sciences; Wellesley, Mass.). The assay is capable of detecting 0.1-2.0 μM PIP3 product. The IC50 values were obtained by fitting the dose-dependent inhibition data to a 4-parameter equation using Assay Explorer software (MDL, San Ramon, Calif.).
The Formula I compound was serially diluted in 100% DMSO. The kinase reaction was incubated for 1 h at room temperature, and the reaction was terminated by the addition of PBS. IC50 values were subsequently determined using sigmoidal dose-response curve fit (variable slope).
(§2) The four Class I PI 3-kinases are cloned into baculovirus vectors as follows: […]

p110 alpha = p110 alpha (Homo sapiens (Human), UniProt P42336); test: PI3K isoform inhibition assay, p110 alpha (for alpha/delta selectivity); settings: ratio of biochemical IC50 values
Experimental: as §1
The same protocol may be used to establish IC50 values for p110α (alpha) PI3K binding.
as §2

Sequence of p110 delta (O00329 whole entry, canonical isoform): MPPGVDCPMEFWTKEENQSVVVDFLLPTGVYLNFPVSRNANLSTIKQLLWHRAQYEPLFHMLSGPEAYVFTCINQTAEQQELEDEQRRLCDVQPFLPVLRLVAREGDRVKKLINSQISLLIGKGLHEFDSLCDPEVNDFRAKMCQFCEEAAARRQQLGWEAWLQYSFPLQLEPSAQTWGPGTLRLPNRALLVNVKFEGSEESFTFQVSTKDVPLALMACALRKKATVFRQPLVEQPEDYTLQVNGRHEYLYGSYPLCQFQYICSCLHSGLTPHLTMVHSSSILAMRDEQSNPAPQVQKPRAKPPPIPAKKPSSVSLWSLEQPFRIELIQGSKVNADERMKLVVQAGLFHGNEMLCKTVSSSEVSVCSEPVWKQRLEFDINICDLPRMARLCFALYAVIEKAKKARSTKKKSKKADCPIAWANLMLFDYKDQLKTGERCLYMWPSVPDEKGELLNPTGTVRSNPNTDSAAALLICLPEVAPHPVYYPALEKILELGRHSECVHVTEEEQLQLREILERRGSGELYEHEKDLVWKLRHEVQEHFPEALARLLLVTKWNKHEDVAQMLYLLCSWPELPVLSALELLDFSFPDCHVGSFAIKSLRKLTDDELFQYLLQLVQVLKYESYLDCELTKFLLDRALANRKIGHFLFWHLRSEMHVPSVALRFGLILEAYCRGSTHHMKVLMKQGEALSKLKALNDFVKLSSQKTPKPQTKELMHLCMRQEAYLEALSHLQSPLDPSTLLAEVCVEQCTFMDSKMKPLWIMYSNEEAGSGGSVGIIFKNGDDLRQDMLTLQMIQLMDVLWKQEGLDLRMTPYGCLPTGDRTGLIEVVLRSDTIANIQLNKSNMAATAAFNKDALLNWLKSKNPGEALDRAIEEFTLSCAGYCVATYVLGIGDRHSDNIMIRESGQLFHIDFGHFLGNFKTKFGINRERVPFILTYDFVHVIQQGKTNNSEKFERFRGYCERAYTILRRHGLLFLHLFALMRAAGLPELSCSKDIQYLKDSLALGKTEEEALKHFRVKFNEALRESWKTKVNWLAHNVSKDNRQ
Sequence of p110 delta (P27986 whole entry partner, canonical isoform): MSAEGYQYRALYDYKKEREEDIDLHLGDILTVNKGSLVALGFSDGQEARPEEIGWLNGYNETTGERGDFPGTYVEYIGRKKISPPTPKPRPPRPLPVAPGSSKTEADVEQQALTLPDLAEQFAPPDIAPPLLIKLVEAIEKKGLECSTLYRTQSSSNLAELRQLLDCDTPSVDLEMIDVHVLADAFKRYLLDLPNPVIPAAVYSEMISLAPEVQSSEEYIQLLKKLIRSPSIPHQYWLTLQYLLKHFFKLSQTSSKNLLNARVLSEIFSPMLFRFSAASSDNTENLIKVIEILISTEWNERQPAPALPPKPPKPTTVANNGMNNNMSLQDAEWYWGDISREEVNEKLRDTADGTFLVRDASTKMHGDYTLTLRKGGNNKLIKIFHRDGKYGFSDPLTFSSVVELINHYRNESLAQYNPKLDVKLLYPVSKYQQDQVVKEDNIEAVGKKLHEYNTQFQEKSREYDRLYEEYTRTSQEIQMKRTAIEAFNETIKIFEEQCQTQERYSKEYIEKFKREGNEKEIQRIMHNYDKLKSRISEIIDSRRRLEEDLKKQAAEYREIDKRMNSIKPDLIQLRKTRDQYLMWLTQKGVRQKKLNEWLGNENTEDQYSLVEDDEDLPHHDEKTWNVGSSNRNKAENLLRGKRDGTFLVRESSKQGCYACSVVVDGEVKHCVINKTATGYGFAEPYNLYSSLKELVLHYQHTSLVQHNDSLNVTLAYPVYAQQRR
Sequence of p110 alpha (P42336 whole entry, canonical isoform): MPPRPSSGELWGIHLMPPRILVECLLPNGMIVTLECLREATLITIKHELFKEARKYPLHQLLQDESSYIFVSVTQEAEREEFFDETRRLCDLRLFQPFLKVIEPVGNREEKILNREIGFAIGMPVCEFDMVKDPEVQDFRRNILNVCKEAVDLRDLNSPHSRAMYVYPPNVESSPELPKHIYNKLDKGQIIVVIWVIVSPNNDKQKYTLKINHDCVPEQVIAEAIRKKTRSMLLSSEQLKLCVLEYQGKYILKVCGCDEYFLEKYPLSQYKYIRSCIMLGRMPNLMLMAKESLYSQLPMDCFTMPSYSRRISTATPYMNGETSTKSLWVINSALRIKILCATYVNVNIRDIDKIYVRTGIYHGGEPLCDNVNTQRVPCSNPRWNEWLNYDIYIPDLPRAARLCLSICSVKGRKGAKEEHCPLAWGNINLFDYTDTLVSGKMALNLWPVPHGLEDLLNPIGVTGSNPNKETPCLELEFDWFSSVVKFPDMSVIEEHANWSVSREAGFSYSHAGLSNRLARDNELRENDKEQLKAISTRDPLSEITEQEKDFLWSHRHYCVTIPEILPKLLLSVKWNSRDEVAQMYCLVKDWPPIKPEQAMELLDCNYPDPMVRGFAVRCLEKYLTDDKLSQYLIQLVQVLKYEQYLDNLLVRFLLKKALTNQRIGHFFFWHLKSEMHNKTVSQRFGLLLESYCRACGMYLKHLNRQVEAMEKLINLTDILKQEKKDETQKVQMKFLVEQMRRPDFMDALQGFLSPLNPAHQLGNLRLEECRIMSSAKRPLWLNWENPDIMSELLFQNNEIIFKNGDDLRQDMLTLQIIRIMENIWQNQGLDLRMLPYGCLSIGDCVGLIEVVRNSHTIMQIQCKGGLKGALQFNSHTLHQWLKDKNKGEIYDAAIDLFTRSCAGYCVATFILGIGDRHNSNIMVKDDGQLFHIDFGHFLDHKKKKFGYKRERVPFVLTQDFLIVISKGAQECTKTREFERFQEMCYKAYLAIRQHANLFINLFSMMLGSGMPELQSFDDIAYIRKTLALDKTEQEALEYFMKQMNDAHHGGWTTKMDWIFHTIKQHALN
Sequence of p110 alpha (P27986 whole entry partner, canonical isoform): as the sequence (P27986 whole entry partner, canonical isoform) above

| SMILES | IC50 (p110 delta) [nM] | IC50 p110 alpha/IC50 p110 delta (p110 alpha) |
| --- | --- | --- |
| Cc1nc(-c2cn3c(n2)-c2ccc(N4CCCC4C4CCCN(C)C4)cc2OCC3)n(C(C)C)n1 (centres unmarked) [Example 311, 2-(2-isopropyl-5-methyl-1,2,4-triazol-3-yl)-9-[2-(1-methyl-3-piperidyl)pyrrolidin-1-yl]-5,6-dihydroimidazo[1,2-d][1,4]benzoxazepine] | 1.35 | 46.8 |
| Cc1nc(-c2cn3c(n2)-c2ccc(N4CCCC45CCCN(C)C5)cc2OCC3)n(C(C)C)n1 (centres unmarked) [Example 314, 2-(2-isopropyl-5-methyl-1,2,4-triazol-3-yl)-9-(7-methyl-1,7-diazaspiro[4.5]decan-1-yl)-5,6-dihydroimidazo[1,2-d][1,4]benzoxazepine] | 0.335 | 50.1 |
| Cc1nc(-c2cn3c(n2)-c2cc(-c4ccnn4[C@@H]4CCCN(C(C)C)C4)c(F)cc2OCC3)n(C(C)C)n1 [Example 315, (R)-9-fluoro-2-(1-isopropyl-3-methyl-1H-1,2,4-triazol-5-yl)-10-(1-(1-isopropylpiperidin-3-yl)-1H-pyrazol-5-yl)-5,6-dihydrobenzo[f]imidazo[1,2-d][1,4]oxazepine] | 0.44 | 25.8 |
| Cc1nc(-c2cn3c(n2)-c2cc(-c4ccnn4[C@H]4CCCN(C(C)C)C4)c(F)cc2OCC3)n(C(C)C)n1 [Example 316, (S)-9-fluoro-2-(1-isopropyl-3-methyl-1H-1,2,4-triazol-5-yl)-10-(1-(1-isopropylpiperidin-3-yl)-1H-pyrazol-5-yl)-5,6-dihydrobenzo[f]imidazo[1,2-d][1,4]oxazepine] | < 0.035 | 214 |
| Cc1nc(-c2cn3c(n2)-c2ccc(-c4cnc(C)n4C4CCCN(C(C)C)C4)cc2OCC3)n(C(C)C)n1 (centres unmarked) [Example 317, 2-(2-isopropyl-5-methyl-1,2,4-triazol-3-yl)-9-[3-(1-isopropyl-3-piperidyl)-2-methyl-imidazol-4-yl]-5,6-dihydroimidazo[1,2-d][1,4]benzoxazepine] | 6.51 | 22.3 |
| Cc1nc(-c2cn3c(n2)-c2ccc(N4CCCC45CCCN(C)C5)cc2OCC3)n(C(C)C)n1 (centres unmarked) [Example 318, 2-(2-isopropyl-5-methyl-1,2,4-triazol-3-yl)-9-(7-methyl-1,7-diazaspiro[4.5]decan-1-yl)-5,6-dihydroimidazo[1,2-d][1,4]benzoxazepine] | 0.178 | 29.4 |
| Cc1nc(-c2cn3c(n2)-c2ccc(N4CCCC4C4CCCN(C)C4)cc2OCC3)n(C(C)C)n1 (centres unmarked) [Example 319, 2-(2-isopropyl-5-methyl-1,2,4-triazol-3-yl)-9-[2-(1-methyl-3-piperidyl)pyrrolidin-1-yl]-5,6-dihydroimidazo[1,2-d][1,4]benzoxazepine] | 2.81 | 26.3 |
| Cc1nc(-c2cn3c(n2)-c2ccc(N4CCCC45CCCN(C)C5)cc2OCC3)n(C(C)C)n1 (centres unmarked) [Example 320, 2-(2-isopropyl-5-methyl-1,2,4-triazol-3-yl)-9-(7-methyl-1,7-diazaspiro[4.5]decan-1-yl)-5,6-dihydroimidazo[1,2-d][1,4]benzoxazepine] | 0.236 | 54.6 |
| Cc1nc(-c2cn3c(n2)-c2ccc(N4CCCC4C4CCCN(C)C4)cc2OCC3)n(C(C)C)n1 (centres unmarked) [Example 321, 2-(2-isopropyl-5-methyl-1,2,4-triazol-3-yl)-9-[2-(1-methyl-3-piperidyl)pyrrolidin-1-yl]-5,6-dihydroimidazo[1,2-d][1,4]benzoxazepine] | 2.52 | 22.1 |
| Cc1nc(-c2cn3c(n2)-c2ccc(N4CCCC4C4CCCN(C)C4)cc2OCC3)n(C(C)C)n1 (centres unmarked) [Example 322, 2-(2-isopropyl-5-methyl-1,2,4-triazol-3-yl)-9-[2-(1-methyl-3-piperidyl)pyrrolidin-1-yl]-5,6-dihydroimidazo[1,2-d][1,4]benzoxazepine] | 5.68 | 31.9 |
| Cc1nc(-c2cn3c(n2)-c2ccc(N4CCCC4C4CCCCN4C)cc2OCC3)n(C(C)C)n1 (centres unmarked) [Example 323, 2-(2-isopropyl-5-methyl-1,2,4-triazol-3-yl)-9-[2-(1-methyl-2-piperidyl)pyrrolidin-1-yl]-5,6-dihydroimidazo[1,2-d][1,4]benzoxazepine] | 1.94 | 11.7 |
| Cc1nc(-c2cn3c(n2)-c2ccc(N4CCCC4C4CCCCN4C)cc2OCC3)n(C(C)C)n1 (centres unmarked) [Example 324, 2-(2-isopropyl-5-methyl-1,2,4-triazol-3-yl)-9-[2-(1-methyl-2-piperidyl)pyrrolidin-1-yl]-5,6-dihydroimidazo[1,2-d][1,4]benzoxazepine] | 139 | 15 |
| Cc1nc(-c2cn3c(n2)-c2ccc(N4CCC[C@H]4CN4CCCC4)cc2OCC3)n(C(C)C)n1 [Example 325, (S)-2-(1-isopropyl-3-methyl-1H-1,2,4-triazol-5-yl)-9-(2-(pyrrolidin-1-ylmethyl)pyrrolidin-1-yl)-5,6-dihydrobenzo[f]imidazo[1,2-d][1,4]oxazepine] | 0.313 | 20.2 |
| Cc1nc(-c2cn3c(n2)-c2ccc(N4CCC[C@@H]4CN4CCCC4)cc2OCC3)n(C(C)C)n1 [Example 326, (R)-2-(1-isopropyl-3-methyl-1H-1,2,4-triazol-5-yl)-9-(2-(pyrrolidin-1-ylmethyl)pyrrolidin-1-yl)-5,6-dihydrobenzo[f]imidazo[1,2-d][1,4]oxazepine] | 0.416 | 52.9 |
| CC(C)n1nc(N)nc1-c1cn2c(n1)-c1ccc(-c3ccnn3C3CCN(C(C)(C)C)CC3)cc1OCC2 [Example 327, 5-[9-[2-(1-tert-butyl-4-piperidyl)pyrazol-3-yl]-5,6-dihydroimidazo[1,2-d][1,4]benzoxazepin-2-yl]-1-isopropyl-1,2,4-triazol-3-amine] | 3.89 | 20.8 |
| Cc1nc(-c2cn3c(n2)-c2cc(C(C)N4CCN(C(C)(C)C)CC4)c(F)cc2OCC3)n(C(C)C)n1 (centres unmarked) [Example 328, 10-[1-(4-tert-butylpiperazin-1-yl)ethyl]-9-fluoro-2-(2-isopropyl-5-methyl-1,2,4-triazol-3-yl)-5,6-dihydroimidazo[1,2-d][1,4]benzoxazepine] | 2.29 | 109 |
| Cc1nc(-c2cn3c(n2)-c2cc([C@@H](C)N4CCN(C(C)C)CC4)c(C)cc2OCC3)n(C(C)C)n1 [Example 331, (R)-2-(1-isopropyl-3-methyl-1H-1,2,4-triazol-5-yl)-10-(1-(4-isopropylpiperazin-1-yl)ethyl)-9-methyl-5,6-dihydrobenzo[f]imidazo[1,2-d][1,4]oxazepine] | 0.865 | 104 |
| Cc1nc(-c2cn3c(n2)-c2cc([C@H](C)N4CCN(C(C)C)CC4)c(C)cc2OCC3)n(C(C)C)n1 [Example 332, (S)-2-(1-isopropyl-3-methyl-1H-1,2,4-triazol-5-yl)-10-(1-(4-isopropylpiperazin-1-yl)ethyl)-9-methyl-5,6-dihydrobenzo[f]imidazo[1,2-d][1,4]oxazepine] | 0.678 | 13 |
| CCN(CC)C1CCOC(c2c(-c3ccc4c(c3)OCCn3cc(-c5nc(C)nn5C(C)C)nc3-4)cnn2C)C1 (centres unmarked) [Example 333, N,N-diethyl-2-[4-[2-(2-isopropyl-5-methyl-1,2,4-triazol-3-yl)-5,6-dihydroimidazo[1,2-d][1,4]benzoxazepin-9-yl]-2-methyl-pyrazol-3-yl]tetrahydropyran-4-amine] | 2.37 | 27.2 |
| Cc1nc(-c2cn3c(n2)-c2cc([C@@H](C)N4CCN(CC(C)(C)O)CC4)c(F)cc2OCC3)n(C(C)C)n1 [Example 334, (R)-1-(4-(1-(9-fluoro-2-(1-isopropyl-3-methyl-1H-1,2,4-triazol-5-yl)-5,6-dihydrobenzo[f]imidazo[1,2-d][1,4]oxazepin-10-yl)ethyl)piperizan-1-yl)-2-methylpropan-2-ol] | 10.5 | 17.3 |
| Cc1nc(-c2cn3c(n2)-c2ccc(-c4cnn(C)c4C4CC(N(C)C(C)C)CCO4)cc2OCC3)n(C(C)C)n1 (centres unmarked) [Example 335, N-isopropyl-2-[4-[2-(2-isopropyl-5-methyl-1,2,4-triazol-3-yl)-5,6-dihydroimidazo[1,2-d][1,4]benzoxazepin-9-yl]-2-methyl-pyrazol-3-yl]-N-methyl-tetrahydropyran-4-amine] | 2.27 | 96.5 |
| Cc1nc(-c2cn3c(n2)-c2cc([C@H](C)N4CCN(CC(C)(C)O)CC4)c(F)cc2OCC3)n(C(C)C)n1 [Example 336, (S)-1-(4-(1-(9-fluoro-2-(1-isopropyl-3-methyl-1H-1,2,4-triazol-5-yl)-5,6-dihydrobenzo[f]imidazo[1,2-d][1,4]oxazepin-10-yl)ethyl)piperazin-1-yl)-2-methylpropan-2-ol] | 26.8 | 27 |
